Test results published in PubChem BioAssay (NCI).
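These data come from cells grown in 96-well plates and exposed to compound for 48 hours at five concentrations. GI50 is the concentration that inhibits growth by half. At the TGI there is no net growth.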

Columns and labels:
Test in all cases: inhibition of tumour cell growth, NCI panel, 48 h
OVCAR-4 ovarian = tested on: OVCAR-4 ovarian
IGROV1 ovarian = tested on: IGROV1 ovarian
HCT-15 colon = tested on: HCT-15 colon
HL-60(TB) leukemia = tested on: HL-60(TB) leukemia
NCI-H460 lung = tested on: NCI-H460 lung
PC-3 prostate = tested on: PC-3 prostate
CAKI-1 renal = tested on: CAKI-1 renal
LOX IMVI melanoma = tested on: LOX IMVI melanoma
A549 NSCLC = tested on: A549 NSCLC
OVCAR-3 ovarian = tested on: OVCAR-3 ovarian
NCI-H23 lung = tested on: NCI-H23 lung
M14 melanoma = tested on: M14 melanoma
SNB-75 CNS = tested on: SNB-75 CNS
HCC-2998 colon = tested on: HCC-2998 colon
UACC-62 melanoma = tested on: UACC-62 melanoma
SR leukemia = tested on: SR leukemia
MDA-MB-231 breast = tested on: MDA-MB-231 breast
HOP-62 NSCLC = tested on: HOP-62 NSCLC
SK-OV-3 ovarian = tested on: SK-OV-3 ovarian
ACHN renal = tested on: ACHN renal
SK-MEL-2 melanoma = tested on: SK-MEL-2 melanoma
CCRF-CEM leukemia = tested on: CCRF-CEM leukemia
SF-295 CNS = tested on: SF-295 CNS
SF-539 CNS = tested on: SF-539 CNS
RXF 393 renal = tested on: RXF 393 renal
SW-620 colon = tested on: SW-620 colon
786-0 renal = tested on: 786-0 renal
EKVX NSCLC = tested on: EKVX NSCLC
KM12 colon = tested on: KM12 colon
MDA-MB-435 = tested on: MDA-MB-435
TK-10 renal = tested on: TK-10 renal
BT-549 breast = tested on: BT-549 breast
HT29 colon = tested on: HT29 colon
UO-31 renal = tested on: UO-31 renal
A498 renal = tested on: A498 renal
SK-MEL-28 melanoma = tested on: SK-MEL-28 melanoma
MALME-3M melanoma = tested on: MALME-3M melanoma
NCI/ADR-RES ovarian = tested on: NCI/ADR-RES ovarian
T-47D breast = tested on: T-47D breast
DU-145 prostate = tested on: DU-145 prostate
COLO 205 colon = tested on: COLO 205 colon
MCF7 breast = tested on: MCF7 breast
MOLT-4 leukemia = tested on: MOLT-4 leukemia
K-562 leukemia = tested on: K-562 leukemia
UACC-257 melanoma = tested on: UACC-257 melanoma
SK-MEL-5 melanoma = tested on: SK-MEL-5 melanoma
RPMI-8226 leukemia = tested on: RPMI-8226 leukemia
SN12C renal = tested on: SN12C renal
SF-268 CNS = tested on: SF-268 CNS
SNB-19 CNS = tested on: SNB-19 CNS
U251 CNS = tested on: U251 CNS
NCI-H522 lung = tested on: NCI-H522 lung
HOP-92 NSCLC = tested on: HOP-92 NSCLC
OVCAR-8 ovarian = tested on: OVCAR-8 ovarian
NCI-H226 lung = tested on: NCI-H226 lung
HCT-116 colon = tested on: HCT-116 colon
OVCAR-5 ovarian = tested on: OVCAR-5 ovarian

## O=[N+]([O-])c1cc([N+](=O)[O-])c(N2CCCC2)cc1NN=C(c1ccc(O)cc1)c1ccc(O)cc1
OVCAR-4 ovarian
  GI50: 4.03 µM
  TGI: 40 µM
IGROV1 ovarian
  GI50: 3.96 µM
  TGI: 16.9 µM
HCT-15 colon
  GI50: 3.98 µM
  TGI: 15.9 µM
HL-60(TB) leukemia
  GI50: 7.89 µM
  TGI: 37.5 µM
NCI-H460 lung
  GI50: 4.21 µM
  TGI: 15.9 µM
PC-3 prostate
  GI50: 6.07 µM
  TGI: > 100 µM
CAKI-1 renal
  GI50: 6.23 µM
  TGI: 21.1 µM
LOX IMVI melanoma
  GI50: 3.28 µM
  TGI: 14.6 µM
A549 NSCLC
  GI50: 3.82 µM
  TGI: 16.4 µM
OVCAR-3 ovarian
  GI50: 2.41 µM
  TGI: 7.65 µM
NCI-H23 lung
  GI50: 9.46 µM
  TGI: 23.3 µM
M14 melanoma
  GI50: 9.62 µM
  TGI: 22.1 µM
SNB-75 CNS
  GI50: 1.34 µM
  TGI: 6.4 µM
HCC-2998 colon
  GI50: 4.12 µM
  TGI: 14.5 µM
UACC-62 melanoma
  GI50: 5.82 µM
  TGI: 19 µM
SR leukemia
  GI50: 5.98 µM
  TGI: 30.9 µM
MDA-MB-231 breast
  GI50: 4.01 µM
  TGI: 16 µM
HOP-62 NSCLC
  GI50: 10.3 µM
  TGI: 24.5 µM
SK-OV-3 ovarian
  GI50: 7.44 µM
  TGI: 19.8 µM
ACHN renal
  GI50: 2.31 µM
  TGI: 11.7 µM
SK-MEL-2 melanoma
  GI50: 7.04 µM
  TGI: 24.3 µM
CCRF-CEM leukemia
  GI50: 2.17 µM
  TGI: 21.5 µM
SF-295 CNS
  GI50: 1.48 µM
  TGI: 5.36 µM
SF-539 CNS
  GI50: 12.4 µM
  TGI: 24.8 µM
RXF 393 renal
  GI50: 3.12 µM
  TGI: 12.8 µM
SW-620 colon
  GI50: 9.15 µM
  TGI: 21.2 µM
786-0 renal
  GI50: 6.88 µM
  TGI: 19.8 µM
EKVX NSCLC
  GI50: 0.508 µM
  TGI: 23.9 µM
KM12 colon
  GI50: 3.51 µM
  TGI: 14.1 µM
MDA-MB-435
  GI50: 2.52 µM
  TGI: 14.4 µM
TK-10 renal
  GI50: 11.6 µM
  TGI: 35.8 µM
BT-549 breast
  GI50: 18.5 µM
  TGI: 75.3 µM
HT29 colon
  GI50: 3.41 µM
  TGI: 14.5 µM
UO-31 renal
  GI50: 5.54 µM
  TGI: 18.5 µM
A498 renal
  GI50: 5.34 µM
  TGI: 16.7 µM
SK-MEL-28 melanoma
  GI50: 3.39 µM
  TGI: 13.8 µM
MALME-3M melanoma
  GI50: 14.9 µM
  TGI: 35 µM
NCI/ADR-RES ovarian
  GI50: 13.6 µM
  TGI: 37.9 µM
T-47D breast
  GI50: 0.681 µM
  TGI: 4.76 µM
DU-145 prostate
  GI50: 7.43 µM
  TGI: 20.2 µM
COLO 205 colon
  GI50: 3.79 µM
  TGI: 15.5 µM
MCF7 breast
  GI50: 3.55 µM
  TGI: 20.1 µM
MOLT-4 leukemia
  GI50: 3.36 µM
  TGI: > 100 µM
K-562 leukemia
  GI50: 2.35 µM
  TGI: 21 µM
UACC-257 melanoma
  GI50: 13.6 µM
  TGI: 26.9 µM
SK-MEL-5 melanoma
  GI50: 2.73 µM
  TGI: 15.3 µM
RPMI-8226 leukemia
  GI50: 3.78 µM
  TGI: 24 µM
SN12C renal
  GI50: 10.1 µM
  TGI: 23.3 µM
SF-268 CNS
  GI50: 2.99 µM
  TGI: 12.6 µM
SNB-19 CNS
  GI50: 7.06 µM
  TGI: 21.6 µM
U251 CNS
  GI50: 4.81 µM
  TGI: 18.3 µM
NCI-H522 lung
  GI50: 12.8 µM
  TGI: 45.6 µM
HOP-92 NSCLC
  GI50: 10.1 µM
  TGI: 26.4 µM
OVCAR-8 ovarian
  GI50: 9.86 µM
  TGI: 60.5 µM
NCI-H226 lung
  GI50: 16.9 µM
  TGI: 45.8 µM
HCT-116 colon
  GI50: 4.54 µM
  TGI: 16.5 µM
OVCAR-5 ovarian
  GI50: 17.2 µM
  TGI: 30.9 µM
